Results as given in patent publication US4659721A, “Alkanol derivatives, and pharmaceutical preparation containing these compounds” (Ludwig Heumann & Co. GmbH, priority 1984, dated 1987).

Tests used:
[1] = molecular target: T1, histamine-H2 receptors (Rattus norvegicus, UniProt P25102); experiment: Gosh-Schild rat (Stimulator: histamine); format: in vivo; details: iv, i.V., read-out: ID50 (the source's name)
T1 construct: from tissue; host or cells: rat stomach, perfused (in vivo Ghosh-Schild preparation)
T1 sequence (P25102 whole entry, the tested form may be a part): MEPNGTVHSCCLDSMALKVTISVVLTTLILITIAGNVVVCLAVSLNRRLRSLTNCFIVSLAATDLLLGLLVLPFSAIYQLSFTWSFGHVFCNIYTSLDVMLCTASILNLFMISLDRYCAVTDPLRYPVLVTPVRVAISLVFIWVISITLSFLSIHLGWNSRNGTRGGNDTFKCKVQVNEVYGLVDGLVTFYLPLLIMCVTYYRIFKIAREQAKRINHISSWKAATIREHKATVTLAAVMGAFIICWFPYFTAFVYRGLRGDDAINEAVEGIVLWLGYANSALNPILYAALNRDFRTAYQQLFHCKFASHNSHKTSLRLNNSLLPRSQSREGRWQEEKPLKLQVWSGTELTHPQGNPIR
Text: These compounds also antagonize the histamine action on the frequency of contraction of the isolated right atrium of the guinea-pig but have no effect on histamine induced contractions of isolated, smooth gastrointestinal muscle when these are produced by […].
Experimental model: Gosh-Schild rat

[2] = therapeutic use, several daily doses of tablets with dose units of 160 to 300 mg; cited from earlier work

Compound	ED50 [1] [µmol/kg]	half life [2]
CN/C(=N/CCSCc1nc[nH]c1C)NC#N [Cimetidine]	1.4	relatively short
Nc1n[s+]([O-])nc1NCC(O)COCc1cccc(CN2CCCCC2)c1 (stereo not shown) [Example 1, 3-[2-Hydroxy-3-[3-(1-piperidylmethyl)-benzyloxy]propylamino]-4-amino-1,2,5-thiadiazole-1-oxide]	0.075	–
CNC(=C[N+](=O)[O-])NCCSCc1ccc(CN(C)C)o1 [ranitidine]	–	relatively short
